Like-named read-outs stand apart in the source and are kept apart here.
Key:
[1] = biological target: T1, Electrophorus electricus AChE (EeAChE) (Electrophorus electricus, UniProt O42275); assay: Inhibition of EeAChE (Ellman's assay); format: biochemical; conditions: mean ± SEM, at least three independent experiments
T1 construct: purified AChE from Electrophorus electricus (Type V-S, Sigma-Aldrich); purchased Sigma-Aldrich Type V-S
Experimental: (§1) For the preliminary screening of the inhibitory potencies, Electrophorus electricus AChE (EeAChE) and horse serum BuChE (eqBuChE) were used following the Ellman’s assay.
(§2) Assessment of the inhibitory power of BCPOs was performed following the spectrophotometric method of Ellman using purified AChE from Electrophorus electricus (Type V-S, Sigma-Aldrich) or BuChE from horse serum (lyophilized powder, Sigma-Aldrich). Enzymes were first dissolved in 0.1 M phosphate buffer (pH 8.0) and then aliquoted in small vials for easy handling. Compounds stock solutions in DMSO (10 mM) were diluted when necessary with DMSO to prepare appropriate dilutions of each compound. The assay was performed in a final volume of 3 mL of a 0.1 M phosphate-buffered solution at pH 8.0, containing 5,5′-dithiobis-2-nitrobenzoic acid (DTNB, 2625 µL, 0.35 mM, final concentration), EeAChE (29 µL, 0.035 U/mL final concentration) or eqBuChE (60 µL, 0.05 U/mL final concentration) tested compound (3 µL, different concentrations) and 1% (w/v) Bovine Albumin Serum phosphate-buffered (pH 8.0) solution (BSA, 40 µL). The inhibition in comparison to control without compound was determined by pre-incubating this blend at room temperature with each compound at nine different concentrations for 10 min. Then, acetylthiocholine iodide (105 µL, 0.35 mM, final concentration) or butyrylthiocholine iodide (150 µL, 0.5 mM final concentration) was added and incubated for another 15 min at rt. […] Calculation of IC50 values was performed with GraphPad Prism 5. Each concentration was measured in triplicate. Data are expressed as mean ± SEM.

[2] = Oxygen radical absorbance capacity by fluorescence (ORAC-FL); conditions: mean ± SD
Experimental: Trolox was used as standard, fluorescein as fluorescent probe and 2,2′-azobis(2-amidinopropane) dihydrochloride (AAPH) as the peroxyl radical source. Ferulic acid was used as a positive control.
The antioxidant power of BCPOs was determined following the ORAC-FL method using fluorescein as the fluorescent probe. (±)-6-Hydroxy-2,5,7,8-tetramethylchromane-2-carboxylic acid (Trolox), fluorescein (FL) and AAPH were bought from Sigma-Aldrich (Saint Louis, MO, USA). A Varioskan Flash plate reader with built-in injectors (Thermo Scientific, Waltham, MA, USA) was used. The final volume reaction mixture was 200 µL and the reaction was carried out at 37 °C in 75 mM phosphate buffer (pH 7.4). The tested compounds and Trolox standard were dissolved in DMSO to 10 mM and further diluted in phosphate buffer. The final concentrations were 0.1–1 µM for the tested compounds and 1–8 µM for Trolox standard. The blank was composed of 120 µL of FL, 60 µL of AAPH and 20 µL of phosphate buffer (pH = 7.4) and was added in each assay. The antioxidant (20 µL) and fluorescein (FL, 120 µL, final concentration of 70 nM) were incubated in a black 96-well microplate Nunc, purchazed from Thermo Fisher Scientific, Ecublens, Switzerland) for 15 min at 37 °C. Then, AAPH, 60 µL, final concentration of 12 mM) solution was added quickly using the built-in injector. […] The microplate was automatically shaken prior to each reading. All the experiments were made in triplicate and at least three different assays were performed for each sample.
Using MS Excel software, regression equations were extrapolated by plotting the net AUC against the antioxidant concentration. The ORAC values were then obtained by dividing the slope of the latter curve between the slope of the Trolox curve obtained in the same assay. Final ORAC values were expressed as Trolox equivalents. Data are expressed as mean ± SD.

[3] = biological target: T2, horse serum BuChE (eqBuChE) (Equus caballus, UniProt P81908); assay: Inhibition of eqBuChE (Ellman's assay); format: biochemical; conditions: 10 µM compound
T2 construct: BuChE from horse serum (lyophilized powder, Sigma-Aldrich); purchased Sigma-Aldrich; host or cells: horse serum
T2 sequence (P81908 whole entry): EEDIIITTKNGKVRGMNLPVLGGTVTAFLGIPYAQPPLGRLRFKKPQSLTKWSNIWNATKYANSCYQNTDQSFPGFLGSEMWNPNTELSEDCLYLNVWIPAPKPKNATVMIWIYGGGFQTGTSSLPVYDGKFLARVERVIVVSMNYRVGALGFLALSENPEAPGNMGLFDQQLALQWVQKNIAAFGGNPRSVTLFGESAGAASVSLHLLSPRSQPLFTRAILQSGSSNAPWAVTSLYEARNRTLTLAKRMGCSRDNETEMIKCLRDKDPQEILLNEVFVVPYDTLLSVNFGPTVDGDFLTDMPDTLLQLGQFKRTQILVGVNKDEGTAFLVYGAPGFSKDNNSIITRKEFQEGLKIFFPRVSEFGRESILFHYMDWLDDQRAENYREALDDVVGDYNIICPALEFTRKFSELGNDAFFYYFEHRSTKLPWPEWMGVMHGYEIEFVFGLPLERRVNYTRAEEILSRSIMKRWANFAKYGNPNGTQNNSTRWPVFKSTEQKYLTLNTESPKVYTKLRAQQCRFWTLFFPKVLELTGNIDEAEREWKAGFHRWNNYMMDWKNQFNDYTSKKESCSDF
Experimental: as §1, §2

in vitro = conditions: for Papp: PAMPA, pH 7.4
Experimental: Penetration across the BBB is an essential property for compounds targeting the CNS. […] The filter membrane of the donor plate was coated with PBL (Polar Brain Lipid, Avanti, AL, USA) in dodecane (4 µL of 20 mg/mL PBL in dodecane) and the acceptor well was filled with 300 µL of PBS pH 7.4 buffer ([…]). Tested compounds were dissolved first in DMSO and that diluted with PBS pH 7.4 to reach the final concentration 100 µM in the donor well. […] 300 µL of the donor solution was added to the donor wells ([…]) and the donor filter plate was carefully put on the acceptor plate so that coated membrane was “in touch” with both donor solution and acceptor buffer. Test compound diffused from the donor well through the lipid membrane (Area = 0.28 cm^2) to the acceptor well. The concentration of the drug in both donor and the acceptor wells was assessed after 3, 4, 5 and 6 h of incubation in quadruplicate using the UV plate reader Synergy HT (Biotek, Winooski, VT, USA) at the maximum absorption wavelength of each compound.

[4] = ORAC-FL, cited from earlier work

T1 sequence (O42275 24-633): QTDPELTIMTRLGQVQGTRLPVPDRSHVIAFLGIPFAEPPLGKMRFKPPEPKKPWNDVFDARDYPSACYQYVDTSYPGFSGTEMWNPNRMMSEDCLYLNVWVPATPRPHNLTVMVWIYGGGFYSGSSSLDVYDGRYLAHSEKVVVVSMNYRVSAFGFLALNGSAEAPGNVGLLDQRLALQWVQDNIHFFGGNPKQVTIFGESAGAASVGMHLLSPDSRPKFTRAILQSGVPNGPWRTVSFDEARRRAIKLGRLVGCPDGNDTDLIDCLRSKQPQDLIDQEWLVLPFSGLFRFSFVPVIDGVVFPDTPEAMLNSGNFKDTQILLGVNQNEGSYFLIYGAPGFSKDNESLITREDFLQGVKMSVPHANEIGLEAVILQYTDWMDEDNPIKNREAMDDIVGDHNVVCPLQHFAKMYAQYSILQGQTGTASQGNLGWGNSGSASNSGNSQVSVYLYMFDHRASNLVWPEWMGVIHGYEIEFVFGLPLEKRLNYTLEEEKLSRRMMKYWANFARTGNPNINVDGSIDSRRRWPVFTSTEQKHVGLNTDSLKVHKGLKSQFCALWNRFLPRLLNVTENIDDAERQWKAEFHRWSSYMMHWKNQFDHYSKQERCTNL

| Compound | IC50 [1] [nM] | ORAC [2] [Trolox equivalents] | inhibition at 10 µM [3] [%] | Papp (in vitro) [×10⁻⁶ cm/s] | ORAC [4] | ORAC ([4]; listed as ferulic acid) [Trolox equivalents] | BBB Penetration Estimation CNS (+/−) (in vitro; PAMPA-BBB class) |
| --- | --- | --- | --- | --- | --- | --- | --- |
| Cc1ccc(C2c3ccc4ccccc4c3Oc3nc4n(c(=O)c32)CCCC4)cc1 (centres unmarked) [4Cb, 7-(4′-Methylphenyl)-10,11,12,13-tetrahydro-7H-benzo[7,8]chromeno[2,3-d]pyrido[1,2-a]pyrimidin-8-one] | 193 ± 18.7 | 2.9 ± 0.1 | 24.4 ± 1.2 | – | – | – | – |
| O=c1c2c(nc3n1CCCC3)Oc1c(ccc3ccccc13)C2c1ccccc1 (centres unmarked) [4Ab, 7-Phenyl-10,11,12,13-tetrahydro-7H-benzo[7,8]chromeno[2,3-d]pyrido[1,2-a]pyrimidin-8-one] | 384 ± 19.4 | 2.3 ± 0.2 | 54.6 ± 1.8 | – | – | – | – |
| CCN(C)C(=O)Oc1cccc([C@H](C)N(C)C)c1 [Rivastigmine, reference compound] | – | – | – | 6.6 ± 0.5 | – | – | – |
| Cc1ccc(C2c3ccc4ccccc4c3Oc3nc4n(c(=O)c32)CCC4)cc1 (centres unmarked) [4Ca, 7-(4′-Methylphenyl)-11,12-dihydro-7H-benzo[7,8]chromeno[2,3-d]pyrrolo[1,2-a]pyrimidin-8(10H)-one] | 116 ± 6.2 | 3.2 ± 0.1 | 26.8 ± 2.9 | – | – | – | – |
| COc1cc(/C=C/C(=O)O)ccc1O [Ferulic acid] | – | – | – | – | 3.7 ± 0.1 [22] Trolox equivalents | 3.7 | – |
| CN1C(C(=O)Nc2ccccn2)=C(O)c2ccccc2S1(=O)=O [Piroxicam, reference compound] | – | – | – | 2.2 ± 0.15 | – | – | CNS (+/−) (‘CNS (+/−) (BBB permeability uncertain); Pe (10^−6 cm·s^−1) from 4.0 to 2.0) |
| O=c1c2c(nc3n1CCC3)Oc1c(ccc3ccccc13)C2c1ccccc1 (centres unmarked) [4Aa, 7-Phenyl-11,12-dihydro-7H-benzo[7,8]chromeno[2,3-d]pyrrolo[1,2-a]pyrimidin-8(10H)-one] | 318 ± 26 | 2.1 ± 0.1 | 23.1 ± 3.1 | – | – | – | – |
| Cc1ccc(C2c3ccc4ccccc4c3Oc3nc4n(c(=O)c32)CCCCC4)cc1 (centres unmarked) [4Cc, 17-(4′-Methylphenyl)-11,12,13,14-tetrahydro-7H-benzo[7,8]chromeno[2′,3′,4,5]pyrimido[1,2-a]azepin-8(10H)-one] | 174 ± 5.9 | 3.6 ± 0.2 | < 10 | – | – | – | – |
| O=c1c2c(nc3n1CCC3)Oc1ccc3ccccc3c1C2c1ccccc1 (centres unmarked) [3Aa, 14-Phenyl-10,11-dihydro-14H-benzo[5,6]chromeno[2,3-d]pyrrolo[1,2-a]pyrimidin-13(9H)-one] | 518 ± 87.9 | 2.6 ± 0.1 | 12.1 ± 1.4 | – | – | – | – |
| COc1cccc(C2c3ccc4ccccc4c3Oc3nc4n(c(=O)c32)CCCCC4)c1 (centres unmarked) [4Bc, 7-(3′-Methoxyphenyl)-11,12,13,14-tetrahydro-7H-benzo[7,8]chromeno[2′,3′,4,5]pyrimido[1,2-a]azepin-8(10H)-one] | 195 ± 6.2 | 3.4 ± 0.2 | 31.1 ± 2.1 | – | – | – | – |
| O=c1c2c(nc3n1CCCCC3)Oc1ccc3ccccc3c1C2c1ccccc1 (centres unmarked) [3Ac, 16-Phenyl-10,11,12,13,-tetrahydro-16H-benzo[5,6]chromeno[2′,3′,4,5]pyrimido[1,2-a]azepin-15(9H)-one] | 301 ± 6.5 | 2.5 ± 0.2 | 28.4 ± 7.3 | – | – | – | – |
| O=c1c2c(nc3n1CCCCC3)Oc1c(ccc3ccccc13)C2c1ccccc1 (centres unmarked) [4Ac, 7-Phenyl-11,12,13,14-tetrahydro-7H-benzo[7,8]chromeno[2′,3′,4,5]pyrimido[1,2-a]azepin-8(10H)-one] | 290 ± 8.3 | 2.5 ± 0.1 | 24.2 ± 3.1 | – | – | – | – |
| COc1cccc(C2c3ccc4ccccc4c3Oc3nc4n(c(=O)c32)CCCC4)c1 (centres unmarked) [4Bb, 7-(3′-Methoxyphenyl)-10,11,12,13-tetrahydro-7H-benzo[7,8]chromeno[2,3-d]pyrido[1,2-a]pyrimidin-8-one] | 153 ± 3.1 | 3.7 ± 0.2 | < 10 | – | – | – | – |
| Cc1ccc(C2c3c(nc4n(c3=O)CCCCC4)Oc3ccc4ccccc4c32)cc1 (centres unmarked) [3Cc, 16-(4’-Methylphenyl)-10,11,12,13-tetrahydro-16H-benzo[5,6]chromeno[2′,3′,4,5]pyrimido[1,2-a]azepin-15(9H)-one] | 167 ± 7.8 | 3.1 ± 0.2 | < 10 | – | – | – | – |
| COc1cccc(C2c3ccc4ccccc4c3Oc3nc4n(c(=O)c32)CCC4)c1 (centres unmarked) [4Ba, 7-(3′-Methoxyphenyl)-11,12-dihydro-7H-benzo[7,8]chromeno[2,3-d]pyrrolo[1,2-a]pyrimidin-8(10H)-one] | 327 ± 38.9 | 3.8 ± 0.1 | 38 ± 1.6 | – | – | – | – |
| Cc1ccc(C2c3c(nc4n(c3=O)CCC4)Oc3ccc4ccccc4c32)cc1 (centres unmarked) [3Ca, 14-(4′-Methylphenyl)-10,11-dihydro-14H-benzo[5,6]chromeno[2,3-d]pyrrolo[1,2-a]pyrimidin-13(9H)-one] | 112 ± 21.7 | 2.7 ± 0.3 | 17.4 ± 1.8 | – | – | – | – |
| COc1cccc(C2c3c(nc4n(c3=O)CCCCC4)Oc3ccc4ccccc4c32)c1 (centres unmarked) [3Bc, 16-(3′-Methoxyphenyl)-10,11,12,13-tetrahydro-16H-benzo[5,6]chromeno[2′,3′,4,5]pyrimido[1,2-a]azepin-15(9H)-one] | 108 ± 7.2 | 3.5 ± 0.3 | < 10 | – | – | – | – |

From article PMC6273488, “Synthesis and Biological Evaluation of Benzochromenopyrimidinones as Cholinesterase Inhibitors and Potent Antioxidant, Non-Hepatotoxic Agents for Alzheimer’s Disease” (Molecules, 2016)
